The structures appear in SMILES notation. Structures can show the parent of a compound that is named as a salt.

A word on the IC50: it is the point on the concentration scale where inhibition reaches its midpoint.

One experiment addresses BRD4-BD1 (Homo sapiens (Human), UniProt O60885). The experiment in a line: BRD4 AlphaScreen assay, BRD4-BD1. The experiment is classed as binding. The note with it: biotin-labeled tetra-acetylated histone H4 peptide, 75 min, room temperature, read-out: BRD4 BD-1 enzyme IC50. In outline: (§1)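 IC50 values from percent-control versus log inhibitor fits after bead-based proximity readout (streptavidin donor, GSH acceptor, 75 min dark). Reactions: 75 min RT, pH 7.4 HEPES, biotin-H4Ac4 peptide 50 nM, with BD1 at 3.8 nM (DMSO 1.25%) and BD2 at 20 nM (DMSO 0.83%).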
(In general: Alpha assays give light when donor and acceptor beads are brought close together.)

The target of another experiment is BRD4-BD2 (Homo sapiens (Human), UniProt O60885). The experiment is described as follows: BRD4 AlphaScreen assay, BRD4-BD2. In kind it is binding. Particulars: biotin-labeled tetra-acetylated histone H4 peptide, 75 min, room temperature, read-out: BRD4 BD-2 enzyme IC50. The method in brief: as §1

Take `Cc1nnc2ccc3c(cc(-c4ccn(C)n4)n3Cc3cc(Cl)cc(CN4CCOCC4)c3)n12` [Example 192, 6-[3-Chloro-5-(morpholin-4-ylmethyl)benzyl]-1-methyl-7-(1-methyl-1H-pyrazol-3-yl)-6H-pyrrolo[2,3-e][1,2,4]triazolo[4,3-a]pyridine bis(trifluoroacetate) Salt]: the IC50 at BRD4-BD1 and on BRD4-BD2 was no more than 100 nM throughout.
Consider `Cc1nnc2ccc3c(cc(C4=NCCO4)n3Cc3cccc(Cl)c3)n12` [Example 193, 6-(3-Chlorobenzyl)-7-(4,5-dihydro-1,3-oxazol-2-yl)-1-methyl-6H-pyrrolo[2,3-e][1,2,4]triazolo[4,3-a]pyridine], for which the IC50 on BRD4-BD1 and at BRD4-BD2 was no more than 100 nM throughout.
Consider `Cc1nnc2ccc3c(cc(-c4ncco4)n3Cc3cccc(Cl)c3)n12` [Example 194, 6-(3-Chlorobenzyl)-1-methyl-7-(1,3-oxazol-2-yl)-6H-pyrrolo[2,3-e][1,2,4]triazolo[4,3-a]pyridine Trifluoroacetate Salt], for which the IC50 at BRD4-BD1 and at BRD4-BD2 was no more than 100 nM throughout.
In the case of `Cc1nnc2ccc3c(cc(-c4ncco4)n3Cc3cc(Cl)cc(CN4CC(C)(C)C4)c3)n12` [Example 196, 6-{3-Chloro-5-[(3,3-dimethylazetidin-1-yl)methyl]benzyl}-1-methyl-7-(1,3-oxazol-2-yl)-6H-pyrrolo[2,3-e][1,2,4]triazolo[4,3-a]pyridine bis(trifluoroacetate) Salt], the IC50 on BRD4-BD1 and at BRD4-BD2 was no more than 100 nM each time.
Take `Cc1nnc2ccc3c(cc(-c4ncco4)n3Cc3cc(Cl)cc(CN4CCCC4)c3)n12` [Example 197, 6-[3-Chloro-5-(pyrrolidin-1-ylmethyl)benzyl]-1-methyl-7-(1,3-oxazol-2-yl)-6H-pyrrolo[2,3-e][1,2,4]triazolo[4,3-a]pyridine bis(trifluoroacetate) Salt]: the IC50 at BRD4-BD1 and at BRD4-BD2 was no more than 100 nM throughout.
With `Cc1nnc2ccc3c(cc(-c4ncco4)n3Cc3cc(Cl)cc(CN4CC(O)C4)c3)n12` [Example 198, 1-(3-Chloro-5-{[1-methyl-7-(1,3-oxazol-2-yl)-6H-pyrrolo[2,3-e][1,2,4]triazolo[4,3-a]pyridin-6-yl]methyl}benzyl)azetidin-3-ol bis(trifluoroacetate) Salt], the IC50 on BRD4-BD1 and at BRD4-BD2 was no more than 100 nM in each case.
`Cc1cc2c(cc(Nc3cc[nH]n3)c3nnc(C)n32)n1Cc1ccccc1` [Example 200, 6-Benzyl-1,7-dimethyl-N-1H-pyrazol-3-yl-6H-pyrrolo[2,3-e][1,2,4]triazolo[4,3-a]pyridin-4-amine tris(trifluoroacetate) Salt]: the IC50 at BRD4-BD1 and at BRD4-BD2 was no more than 100 nM throughout.
As for `Cc1cc2c(cc(Nc3ncccn3)c3nnc(C)n32)n1Cc1ccccc1` [Example 201, 6-Benzyl-1,7-dimethyl-N-pyrimidin-2-yl-6H-pyrrolo[2,3-e][1,2,4]triazolo[4,3-a]pyridin-4-amine tris(trifluoroacetate) Salt], the IC50 at BRD4-BD1 and at BRD4-BD2 was no more than 100 nM each time.
For `Cc1cc2c(cc(Nc3ccn(C)n3)c3nnc(C)n32)n1Cc1ccccc1` [Example 202, 6-Benzyl-1,7-dimethyl-N-(1-methyl-1H-pyrazol-3-yl)-6H-pyrrolo[2,3-e][1,2,4]triazolo[4,3-a]pyridin-4-amine tris(trifluoroacetate) Salt], the IC50 at BRD4-BD1 and on BRD4-BD2 was no more than 100 nM throughout.
Take `Cc1cc2c(cc(O)c3nnc(C)n32)n1Cc1ccccc1` [Example 204, 6-Benzyl-1,7-dimethyl-6H-pyrrolo[2,3-e][1,2,4]triazolo[4,3-a]pyridin-4-ol Trifluoroacetate Salt]: the IC50 at BRD4-BD1 and at BRD4-BD2 was no more than 100 nM throughout.
On to `Cc1cc2c(cc(NC3CCNCC3)c3nnc(C)n32)n1Cc1ccccc1` [Example 206, 6-Benzyl-1,7-dimethyl-N-piperidin-4-yl-6H-pyrrolo[2,3-e][1,2,4]triazolo[4,3-a]pyridin-4-amine], for which the IC50 at BRD4-BD1 and on BRD4-BD2 was no more than 100 nM in each case.
On to `Cc1cc2c(cc(NC3CCN(C)CC3)c3nnc(C)n32)n1Cc1ccccc1` [Example 207, 6-Benzyl-1,7-dimethyl-N-(1-methylpiperidin-4-yl)-6H-pyrrolo[2,3-e][1,2,4]triazolo[4,3-a]pyridin-4-amine], for which the IC50 on BRD4-BD1 and at BRD4-BD2 was no more than 100 nM throughout.
As to `Cc1cc2c(cc(NCCN3CCOCC3)c3nnc(C)n32)n1Cc1ccccc1` [Example 208, 6-Benzyl-1,7-dimethyl-N-(2-morpholin-4-ylethyl)-6H-pyrrolo[2,3-e][1,2,4]triazolo[4,3-a]pyridin-4-amine], the IC50 on BRD4-BD1 and at BRD4-BD2 was no more than 100 nM throughout.
With `COCCNc1cc2c(cc(C)n2Cc2ccccc2)n2c(C)nnc12` [Example 209, 6-Benzyl-N-(2-methoxyethyl)-1,7-dimethyl-6H-pyrrolo[2,3-e][1,2,4]triazolo[4,3-a]pyridin-4-amine], the half-inhibitory concentration (IC50) at BRD4-BD1 and on BRD4-BD2 was no more than 100 nM each time.
For the molecule `Cc1cc2c(cc(NCCO)c3nnc(C)n32)n1Cc1ccccc1` [Example 210, 2-[(6-Benzyl-1,7-dimethyl-6H-pyrrolo[2,3-e][1,2,4]triazolo[4,3-a]pyridin-4-yl)amino]ethanol], the half-inhibitory concentration (IC50) on BRD4-BD1 and on BRD4-BD2 was no more than 100 nM throughout.
Regarding `Cc1cc2c(cc(NC3CCN(S(C)(=O)=O)CC3)c3nnc(C)n32)n1Cc1ccccc1` [Example 211, 6-Benzyl-1,7-dimethyl-N-[1-(methylsulfonyl)piperidin-4-yl]-6H-pyrrolo[2,3-e][1,2,4]triazolo[4,3-a]pyridin-4-amine], the IC50 at BRD4-BD1 and on BRD4-BD2 was no more than 100 nM throughout.
Take `CCN1CCC(Nc2cc3c(cc(C)n3Cc3ccccc3)n3c(C)nnc23)CC1` [Example 212, 6-Benzyl-N-(1-ethylpiperidin-4-yl)-1,7-dimethyl-6H-pyrrolo[2,3-e][1,2,4]triazolo[4,3-a]pyridin-4-amine]: the half-maximal inhibitory concentration (IC50) at BRD4-BD1 and on BRD4-BD2 was no more than 100 nM in each case.
As for `Cc1cc2c(cc(NC3CCN(C(=O)OC(C)(C)C)CC3)c3nnc(C)n32)n1Cc1ccccc1` [Example 214, tert-Butyl 4-[(6-benzyl-1,7-dimethyl-6H-pyrrolo[2,3-e][1,2,4]triazolo[4,3-a]pyridin-4-yl)amino]piperidine-1-carboxylate], the results for the 50% inhibitory concentration (IC50) on BRD4-BD1 and at BRD4-BD2 were 100 to 1000 nM and no more than 100 nM, respectively.
As for `Cc1cc2c(cc(N[C@H]3CC[C@H](N)CC3)c3nnc(C)n32)n1Cc1ccccc1` [Example 217, trans-N-(6-Benzyl-1,7-dimethyl-6H-pyrrolo[2,3-e][1,2,4]triazolo[4,3-a]pyridin-4-yl)cyclohexane-1,4-diamine], the IC50 on BRD4-BD1 and at BRD4-BD2 was no more than 100 nM throughout.
For the molecule `Cc1cc2c(cc(N[C@H]3CC[C@@H](N)CC3)c3nnc(C)n32)n1Cc1ccccc1` [Example 218, cis-N-(6-Benzyl-1,7-dimethyl-6H-pyrrolo[2,3-e][1,2,4]triazolo[4,3-a]pyridin-4-yl)cyclohexane-1,4-diamine], the IC50 at BRD4-BD1 and at BRD4-BD2 was no more than 100 nM each time.
With `CN[C@H]1CC[C@H](Nc2cc3c(cc(C)n3Cc3ccccc3)n3c(C)nnc23)CC1` [Example 219, trans-N-(6-Benzyl-1,7-dimethyl-6H-pyrrolo[2,3-e][1,2,4]triazolo[4,3-a]pyridin-4-yl)-N′-methylcyclohexane-1,4-diamine], the IC50 on BRD4-BD1 and on BRD4-BD2 was no more than 100 nM in each case.
With `CN[C@H]1CC[C@@H](Nc2cc3c(cc(C)n3Cc3ccccc3)n3c(C)nnc23)CC1` [Example 221, cis-N-(6-Benzyl-1,7-dimethyl-6H-pyrrolo[2,3-e][1,2,4]triazolo[4,3-a]pyridin-4-yl)-N′-methylcyclohexane-1,4-diamine], the IC50 at BRD4-BD1 and at BRD4-BD2 was no more than 100 nM in each case.
`Cc1nnc2ccc3c(cc(C#N)n3Cc3ccccc3)n12` [Example 227, 6-Benzyl-1-methyl-6H-pyrrolo[2,3-e][1,2,4]triazolo[4,3-a]pyridine-7-carbonitrile Trifluoroacetate Salt]: the IC50 on BRD4-BD1 and at BRD4-BD2 was no more than 100 nM each time.
Consider `Cc1cc2c(cc(NCC3CC3)c3nnc(C)n32)n1Cc1ccccc1` [Example 228, 6-Benzyl-N-(cyclopropylmethyl)-1,7-dimethyl-6H-pyrrolo[2,3-e][1,2,4]triazolo[4,3-a]pyridin-4-amine], for which the IC50 on BRD4-BD1 and on BRD4-BD2 was no more than 100 nM each time.
With `CNC(=O)Nc1cc2c(cc(C)n2Cc2ccccc2)n2c(C)nnc12` [Example 229, 1-(6-Benzyl-1,7-dimethyl-6H-pyrrolo[2,3-e][1,2,4]triazolo[4,3-a]pyridin-4-yl)-3-methylurea], the IC50 at BRD4-BD1 and on BRD4-BD2 was no more than 100 nM each time.
Regarding `Cc1cc2c(cc(NC(N)=O)c3nnc(C)n32)n1Cc1cccc(C(F)(F)F)c1` [Example 230, 1-(1,7-Dimethyl-6-(3-(trifluoromethyl)benzyl)-6H-pyrrolo[2,3-e][1,2,4]triazolo[4,3-a]pyridin-4-yl)urea], the IC50 at BRD4-BD1 and at BRD4-BD2 was no more than 100 nM in each case.
For `Cc1cc2c(cc(NC(N)=O)c3nnc(C)n32)n1Cc1cccc(Cl)c1` [Example 231, 1-(6-(3-Chlorobenzyl)-1,7-dimethyl-6H-pyrrolo[2,3-e][1,2,4]triazolo[4,3-a]pyridin-4-yl)urea], the IC50 at BRD4-BD1 and at BRD4-BD2 was no more than 100 nM each time.
Regarding `Cc1cc2c(cc(NC3CCCCC3)c3nnc(C)n32)n1Cc1ccccc1` [Example 232, 6-Benzyl-N-cyclohexyl-1,7-dimethyl-6H-pyrrolo[2,3-e][1,2,4]triazolo[4,3-a]pyridin-4-amine], the IC50 at BRD4-BD1 and at BRD4-BD2 was 100 to 1000 nM throughout.
